In ChEMBL document CHEMBL2396541, “Synthesis and in vitro evaluation of glycosyl derivatives of luteinizing hormone-releasing hormone (LHRH)” (Bioorg Med Chem, 2013):

What was measured:
[1] = Half life in human Caco2 cell homogenates at 200 uM by LC-MS analysis; format: ADME, cell-based; details: Caco-2 cell homogenates
[2] = Half life in human; format: ADME, organism-based; details: in vivo
Caco-2 = assay: Prodrug activation in human Caco2 cell homogenates assessed as LHRH release after 2 hrs; format: cell-based; details: caco-2, 2 h
[3] = Apparent permeability across human Caco2 cells at 200 uM up to 120 mins by LC-MS analysis; format: ADME, cell-based; details: Caco-2
[4] = Half life in human plasma; format: ADME, cell-free

Row | half-life at 200 µM [1] [min] | half-life [2] [min] | Drug metabolism (Caco-2) | Papp at 2 h, 200 µM [3] [×10⁻⁶ cm/s] | half-life [4] [min] | Compound
1 | 133 | 3 |  |  |  | CC(C)C[C@H](NC(=O)[C@@H](Cc1c[nH]c2ccccc12)NC(=O)[C@H](Cc1ccc(O)cc1)NC(=O)[C@H](CO)NC(=O)[C@H](Cc1c[nH]c2ccccc12)NC(=O)[C@H](Cc1cnc[nH]1)NC(=O)[C@H](CCC(N)=O)NC(=O)CCC(=O)N[C@@H]1O[C@H](CO)[C@@H](O[C@@H]2O[C@H](CO)[C@H](O)[C@H](O)[C@H]2O)[C@H](O)[C@H]1O)C(=O)N[C@@H](CCCNC(=N)N)C(=O)N1CCC[C@H]1C(=O)NCC(N)=O
2 | 73.5 |  | Not Active | 2.31 |  | CC(C)C[C@H](NC(=O)CNC(=O)[C@H](Cc1ccc(O)cc1)NC(=O)[C@H](CO)NC(=O)[C@H](Cc1c[nH]c2ccccc12)NC(=O)[C@H](Cc1cnc[nH]1)NC(=O)[C@H](CCC(N)=O)NC(=O)CCC(=O)N[C@@H]1O[C@H](CO)[C@@H](O)[C@H](O)[C@H]1O)C(=O)N[C@@H](CCCNC(=N)N)C(=O)N1CCC[C@H]1C(=O)NCC(N)=O
3 | 92.2 |  | Not Active | 1.62 |  | CC(C)C[C@H](NC(=O)CNC(=O)[C@H](Cc1ccc(O)cc1)NC(=O)[C@H](CO)NC(=O)[C@H](Cc1c[nH]c2ccccc12)NC(=O)[C@H](Cc1cnc[nH]1)NC(=O)[C@H](CCC(N)=O)NC(=O)CCC(=O)N[C@@H]1O[C@H](CO)[C@H](O)[C@H](O)[C@H]1O)C(=O)N[C@@H](CCCNC(=N)N)C(=O)N1CCC[C@H]1C(=O)NCC(N)=O
4 | 133 |  | Not Active | 0.76 |  | CC(C)C[C@H](NC(=O)CNC(=O)[C@H](Cc1ccc(O)cc1)NC(=O)[C@H](CO)NC(=O)[C@H](Cc1c[nH]c2ccccc12)NC(=O)[C@H](Cc1cnc[nH]1)NC(=O)[C@H](CCC(N)=O)NC(=O)CCC(=O)N[C@@H]1O[C@H](CO)[C@@H](O[C@@H]2O[C@H](CO)[C@H](O)[C@H](O)[C@H]2O)[C@H](O)[C@H]1O)C(=O)N[C@@H](CCCNC(=N)N)C(=O)N1CCC[C@H]1C(=O)NCC(N)=O
5 | 28.4 |  |  |  |  | CC(C)C[C@H](NC(=O)CNC(=O)[C@H](Cc1ccc(O)cc1)NC(=O)[C@H](CO)NC(=O)[C@H](Cc1c[nH]c2ccccc12)NC(=O)[C@H](Cc1cnc[nH]1)NC(=O)[C@@H](N)CCC(=O)O)C(=O)N[C@@H](CCCNC(=N)N)C(=O)N1CCC[C@H]1C(=O)NCC(=O)N[C@@H]1O[C@H](C(N)=O)[C@@H](O)[C@H](O)[C@H]1O
6 | 56.7 |  | Not Active | 2.65 |  | CC(C)C[C@H](NC(=O)CNC(=O)[C@H](Cc1ccc(O)cc1)NC(=O)[C@H](CO)NC(=O)[C@H](Cc1c[nH]c2ccccc12)NC(=O)[C@H](Cc1cnc[nH]1)NC(=O)[C@H](CCC(=O)O)NC(=O)CCC(=O)N[C@@H]1O[C@H](CO)[C@@H](O)[C@H](O)[C@H]1O)C(=O)N[C@@H](CCCNC(=N)N)C(=O)N1CCC[C@H]1C(=O)NCC(N)=O
7 | 51 |  | Not Active | 1.08 |  | CC(C)C[C@H](NC(=O)CNC(=O)[C@H](Cc1ccc(O)cc1)NC(=O)[C@H](CO)NC(=O)[C@H](Cc1c[nH]c2ccccc12)NC(=O)[C@H](Cc1cnc[nH]1)NC(=O)[C@H](CCC(=O)O)NC(=O)CCC(=O)N[C@@H]1O[C@H](CO)[C@H](O)[C@H](O)[C@H]1O)C(=O)N[C@@H](CCCNC(=N)N)C(=O)N1CCC[C@H]1C(=O)NCC(N)=O
8 | 77 |  | Not Active | 2.87 |  | CC(C)C[C@H](NC(=O)CNC(=O)[C@H](Cc1ccc(O)cc1)NC(=O)[C@H](CO)NC(=O)[C@H](Cc1c[nH]c2ccccc12)NC(=O)[C@H](Cc1cnc[nH]1)NC(=O)[C@H](CCC(=O)O)NC(=O)CCC(=O)N[C@@H]1O[C@H](CO)[C@@H](O[C@@H]2O[C@H](CO)[C@H](O)[C@H](O)[C@H]2O)[C@H](O)[C@H]1O)C(=O)N[C@@H](CCCNC(=N)N)C(=O)N1CCC[C@H]1C(=O)NCC(N)=O
9 | 30.4 |  |  |  |  | CC(C)C[C@H](NC(=O)CNC(=O)[C@H](Cc1ccc(O)cc1)NC(=O)[C@H](CO)NC(=O)[C@H](Cc1c[nH]c2ccccc12)NC(=O)[C@H](Cc1cnc[nH]1)NC(=O)[C@@H](N)CCC(=O)O)C(=O)N[C@@H](CCCNC(=N)N)C(=O)N1CCC[C@H]1C(=O)NCC(N)=O
10 | 32.6 |  |  | 0.398 | 3 | CC(C)C[C@H](NC(=O)CNC(=O)[C@H](Cc1ccc(O)cc1)NC(=O)[C@H](CO)NC(=O)[C@H](Cc1c[nH]c2ccccc12)NC(=O)[C@H](Cc1cnc[nH]1)NC(=O)[C@@H]1CCC(=O)N1)C(=O)N[C@@H](CCCNC(=N)N)C(=O)N1CCC[C@H]1C(=O)NCC(N)=O [GONADORELIN]
11 | 186 |  |  |  |  | CC(C)C[C@H](NC(=O)[C@@H](Cc1c[nH]c2ccccc12)NC(=O)[C@H](Cc1ccc(O)cc1)NC(=O)[C@H](CO)NC(=O)[C@H](Cc1c[nH]c2ccccc12)NC(=O)[C@H](Cc1c[nH]cn1)NC(=O)[C@@H]1CCC(=O)N1)C(=O)N[C@@H](CCCNC(=N)N)C(=O)N1CCC[C@H]1C(=O)NCC(N)=O [TRIPTORELIN]
